According to patent US20250059179A1, “Heterocyclic Compounds and Methods of Use” (AMGEN INC., priority 2021, published 2025):

Assays:
[1] = target: His-tagged KRAS G12D protein (Homo sapiens, UniProt P01116, G12D); test: KRAS G12D TR-FRET Assay; assay type: binding; conditions: biotinylated KRPep-2d substrate, 10 μM GDP;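 also: europium anti-His antibody paired with streptavidin-d2 as FRET partners, initial 30 min incubation, then peptide 1 h and detection reagents 1 h, all at room temperature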
[2] = target: GDP-bound KRAS protein (aa 1-169), containing both G12D and C118A amino acid substitutions (Homo sapiens, UniProt P01116, C118A/G12D); test: KRAS G12D Coupled Nucleotide Exchange Assay; assay type: biochemical; conditions: 2 h compound pre-incubation; SOS-mediated nucleotide exchange, cRAF AlphaScreen readout;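 also: IC50 obtained by fitting the AlphaScreen signal with a four-parameter logistic curve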
Sequence of GDP-bound KRAS protein (aa 1-169), containing both G12D and C118A amino acid substitutions (P01116 1-169 isoform P01116-2 G12D/C118A): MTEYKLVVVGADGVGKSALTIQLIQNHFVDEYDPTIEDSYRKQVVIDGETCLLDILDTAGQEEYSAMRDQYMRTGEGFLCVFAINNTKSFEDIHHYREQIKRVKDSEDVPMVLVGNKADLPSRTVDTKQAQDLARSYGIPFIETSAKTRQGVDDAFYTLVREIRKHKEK

Sequence of His-tagged KRAS G12D protein (P01116 1-188 isoform P01116-2 G12D): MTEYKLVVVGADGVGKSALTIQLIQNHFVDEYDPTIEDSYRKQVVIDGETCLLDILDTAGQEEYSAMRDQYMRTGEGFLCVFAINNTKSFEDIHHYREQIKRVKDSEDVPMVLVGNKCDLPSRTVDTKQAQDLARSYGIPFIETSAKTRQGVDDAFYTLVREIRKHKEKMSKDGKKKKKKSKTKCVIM

| SMILES | IC50 [1] [nM] | Avg 2 h Coupled Exchange IC50 [2] [nM] |
| --- | --- | --- |
| CN(C)C1CN(c2nc(N3CCNCC3)c3cc(Cl)c(-c4cccc5sc(N)nc45)c(F)c3n2)C1 [Example 67, 4-(6-chloro-2-(3-(dimethylamino)azetidin-1-yl)-8-fluoro-4-(piperazin-1-yl)quinazolin-7-yl)benzo[d] thiazol-2-amine] | 1620 | 670 |
| CN1CCC[C@H]1COc1nc(N2CCNC(C(F)(F)F)C2)c2cc(Cl)c(-c3cccc4sc(N)nc34)c(F)c2n1 (stereo partly drawn) [Example 1, 4-(6-Chloro-8-fluoro-2-(((S)-1-methylpyrrolidin-2-yl)methoxy)-4-(3-(trifluoromethyl)piperazin-1-yl)quinazolin-7-yl)benzo[d]thiazol-2-amine] | 11300 | 3655 |
| Nc1nc2c(-c3c(Cl)cc4c(N5CCNCC5)nc(OCC56CCCN5C(=O)CC6)nc4c3F)cccc2s1 (centres unmarked) [Example 43, 7a-(((7-(2-aminobenzo[d]thiazol-4-yl)-6-chloro-8-fluoro-4-(piperazin-1-yl)quinazolin-2-yl)oxy)methyl)hexahydro-3H-pyrrolizin-3-one] | 3190 | 3290 |
| Nc1nc2c(-c3c(Cl)cc4c(N5CCNCC5)nc(OC[C@@H]5C[C@H](F)CN5)nc4c3F)cccc2s1 [Example 55, 4-(6-chloro-8-fluoro-2-(((2S,4S)-4-fluoro-pyrrolidin-2-yl)methoxy)-4-(piperazin-1-yl)quinazolin-7-yl)benzo[d] thiazol-2-amine] | 285 | 106 |
| Nc1nc2c(-c3c(Cl)cc4c(N5CCNC(=O)CC5)nc(OCC56CCCN5CCC6)nc4c3F)ccc(F)c2s1 [Example 13, 1-(7-(2-amino-7-fluorobenzo [d]thiazol-4-yl)-6-chloro-8-fluoro-2-((tetrahydro-1H-pyrrolizin-7a(5H)-yl)methoxy)quinazolin-4-yl)-1,4-diazepan-5-one] | 22 | 14 |
| CN1CCC[C@H]1COc1nc(N2CCNC(=O)CC2)c2cc(Cl)c(-c3cccc4sc(N)nc34)c(F)c2n1 [Example 24, 1-(7-(2-aminobenzo[d]thiazol-4-yl)-6-chloro-8-fluoro-2-(((S)-1-methylpyrrolidin-2-yl)methoxy)quinazolin-4-yl)-1,4-diazepan-5-one] | 158 | 172 |
| CN1C[C@H](F)C[C@H]1COc1nc(N2CCNCC2)c2cc(Cl)c(-c3cccc4sc(N)nc34)c(F)c2n1 [Example 49, 4-(6-chloro-8-fluoro-2-(((2S,4R)-4-fluoro-1-methyl-pyrrolidin-2-yl)methoxy)-4-(piperazin-1-yl)quinazolin-7-yl)benzo[d] thiazol-2-amine] | 141 | 38 |
| Nc1nc2c(-c3c(Cl)cc4c(N5C[C@H]6COC[C@@H](C5)N6)nc(OC[C@@]56CCCN5C[C@H](F)C6)nc4c3F)ccc(F)c2s1 [Example 42, 4-(4-((1R,5S)-3-oxa-7,9-diazabicyclo[3.3.1]nonan-7-yl)-6-chloro-8-fluoro-2-(((2R,7aS)-2-fluorotetrahydro-1H-pyrrolizin-7a(5H)-yl)methoxy)quinazolin-7-yl)-7-fluorobenzo[d] thiazol-2-amine] | 12 | 12 |
| CN1C[C@H](F)C[C@H]1COc1nc(N2C[C@H]3COC[C@@H](C2)N3)c2cc(Cl)c(-c3ccc(F)c4sc(N)nc34)c(F)c2n1 [Example 41, 4-(4-((1R,5S)-3-oxa-7,9-diazabicyclo[3.3.1]nonan-7-yl)-6-chloro-8-fluoro-2-(((2S,4R)-4-fluoro-1-methylpyrrolidin-2-yl)methoxy)quinazolin-7-yl)-7-fluorobenzo[d] thiazol-2-amine] | 79 | 65 |
| CN1CCC[C@H]1COc1nc(N2C3CNCC2COC3)c2cc(Cl)c(-c3cccc4sc(N)nc34)c(F)c2n1 [Example 10, 4-(4-(3-oxa-7,9-diazabicyclo[3.3.1]nonan-9-yl)-6-chloro-8-fluoro-2-(((S)-1-methylpyrrolidin-2-yl)methoxy)quinazolin-7-yl)benzo[d] thiazol-2-amine] | 14 | 10 |
| CN1CCC[C@H]1COc1nc(N2CCN[C@@H](CC#N)C2)c2cc(Cl)c(-c3cccc4sc(N)nc34)c(F)c2n1 [Example 26, 2-((2S)-4-(7-(2-aminobenzo[d]thiazol-4-yl)-6-chloro-8-fluoro-2-(((S)-1-methylpyrrolidin-2-yl)methoxy)quinazolin-4-yl)piperazin-2-yl)acetonitrile] | 1210 | 409 |
| CN1CCC[C@H]1COc1nc(N2C[C@H]3CC[C@@H]2CN3)c2cc(Cl)c(-c3cccc4sc(N)nc34)c(F)c2n1 [Example 27, 4-(4-((1R,4R)-2,5-diazabicyclo[2.2.2]octan-2-yl)-6-chloro-8-fluoro-2-(((S)-1-methylpyrrolidin-2-yl)methoxy)quinazolin-7-yl)benzo[d]thiazol-2-amine] | 1210 | 429 |
| CN1CCC[C@H]1COc1nc(N2CCCNCC2)c2cc(Cl)c(-c3cccc4sc(N)nc34)c(F)c2n1 [Example 17, 4-(6-chloro-4-(1,4-diazepan-1-yl)-8-fluoro-2-(((S)-1-methylpyrrolidin-2-yl)methoxy)quinazolin-7-yl)benzo[d] thiazol-2-amine] | 135 | 30 |
| CN1CCC[C@H]1COc1nc(N2CCNC[C@@H]2CO)c2cc(Cl)c(-c3cccc4sc(N)nc34)c(F)c2n1 [Example 37, ((2R)-1-(7-(2-aminobenzo[d]thiazol-4-yl)-6-chloro-8-fluoro-2-(((S)-1-methylpyrrolidin-2-yl)methoxy)quinazolin-4-yl)piperazin-2-yl)methanol] | 1970 | 388 |
| Nc1nc2c(-c3c(Cl)cc4c(N5CCNCC5)nc(OCC56CCCN5CCC6)nc4c3F)ccc(F)c2s1 [Example 8, 4-(6-chloro-8-fluoro-4-(piperazin-1-yl)-2-((tetrahydro-1H-pyrrolizin-7a(5H)-yl)methoxy)quinazolin-7-yl)-7-fluorobenzo[d] thiazol-2-amine] | 9 | 7 |
| CN1CCC[C@H]1COc1nc(N2CCNC[C@@H]2CCO)c2cc(Cl)c(-c3cccc4sc(N)nc34)c(F)c2n1 [Example 36, 2-((2S)-1-(7-(2-aminobenzo[d]thiazol-4-yl)-6-chloro-8-fluoro-2-(((S)-1-methylpyrrolidin-2-yl)methoxy)quinazolin-4-yl)piperazin-2-yl)ethan-1-ol] | 5850 | 2250 |

Results, then the compound that gave them:

| IC50 [1] [nM] | Avg 2 h Coupled Exchange IC50 [2] [nM] | SMILES |
| --- | --- | --- |
| 1850 | 797 | Nc1nc2c(-c3c(Cl)cc4c(N5CCNCC5)nc(OCC56CCC(CC5)N6)nc4c3F)cccc2s1 [Example 75, 4-(2-(((1s,4s)-7-azabicyclo[2.2.1]heptan-1-yl)methoxy)-6-chloro-8-fluoro-4-(piperazin-1-yl)quinazolin-7-yl)benzo[d] thiazol-2-amine] |
| 10700 | 2140 | CN1CCC[C@H]1CNc1nc(N2CCNCC2)c2cc(Cl)c(-c3cccc4sc(N)nc34)c(F)c2n1 [Example 70, 4-(6-chloro-8-fluoro-2-((((S)-1-methyl-pyrrolidin-2-yl)methyl)amino)-4-(piperazin-1-yl)quinazolin-7-yl)benzo[d] thiazol-2-amine] |
| 2390 | 391 | CN1CCC[C@H]1COc1nc(N2CCNCC2)c2cc(F)c(-c3cccc4sc(N)nc34)c(F)c2n1 [Example 134, 4-(6,8-difluoro-2-(((S)-1-methylpyrrolidin-2-yl)methoxy)-4-(piperazin-1-yl)quinazolin-7-yl)benzo[d]thiazol-2-amine] |
| 10 | 8 | Nc1nc2c(-c3c(F)cc4c(N5C[C@@H]6CC[C@H]5CN6)nc(OC[C@@]56CCCN5C[C@H](F)C6)nc4c3F)ccc(F)c2s1 [Example 143, 4-(4-((1S,4S)-2,5-diazabicyclo[2.2.2]octan-2-yl)-6,8-difluoro-2-(((2R,7aS)-2-fluorotetrahydro-1H-pyrrolizin-7a(5H)-yl)methoxy)quinazolin-7-yl)-7-fluorobenzo[d]thiazol-2-amine] |
| 2970 | 803 | CC1CNCC=C1c1nc(OC[C@@H]2CCCN2C)nc2c(F)c(-c3cccc4sc(N)nc34)c(Cl)cc12 (single isomer, unassigned) [Example 145] |
| 365 | 189 | CN1CCC[C@H]1COc1nc(N2CCNCC2)c2cc(C#N)c(-c3cccc4sc(N)nc34)c(F)c2n1 [Example 156, 7-(2-Aminobenzo[d]thiazol-4-yl)-8-fluoro-2-(((S)-1-methylpyrrolidin-2-yl)methoxy)-4-(piperazin-1-yl)quinazoline-6-carbonitrile] |
| 7720 | 1890 | C[C@H](CN(C)C)Oc1nc(N2CCNCC2)c2cc(Cl)c(-c3cccc4sc(N)nc34)c(F)c2n1 [Example 69, 4-(6-chloro-2-(((R)-1-(dimethylamino)propan-2-yl)oxy)-8-fluoro-4-(piperazin-1-yl)quinazolin-7-yl)benzo[d] thiazol-2-amine] |
| 1480 | 411 | CCN1CCC(Oc2nc(N3CCNCC3)c3cc(Cl)c(-c4cccc5sc(N)nc45)c(F)c3n2)CC1 [Example 128, 4-(6-chloro-2-((1-ethylpiperidin-4-yl)oxy)-8-fluoro-4-(piperazin-1-yl)quinazolin-7-yl)benzo[d]thiazol-2-amine] |
| 1400 | 735 | CN1CCC[C@H]1COc1nc(N2CCNCC2)c2cc(Cl)c(-c3ccc(C(F)(F)F)c4sc(N)nc34)c(F)c2n1 [Example 131, 4-(6-chloro-8-fluoro-2-(((S)-1-methylpyrrolidin-2-yl)methoxy)-4-(piperazin-1-yl)quinazolin-7-yl)-7-(trifluoromethyl)benzo [d]thiazol-2-amine] |
